Test results taken from patent US20100168112A1, “2-Substituted and 4-substituted aryl nitrone compounds” (RENOVIS, INC., priority 2004, published 2010).
Read-outs that look alike come from different tables or passages of the source.

Key:
[1] = Pharmacokinetic evaluation following intravenous and oral administration in rats; assay type: in vivo; conditions: male, Sprague-Dawley; for Cmax / Tmax / bioavailability: 5 mg/kg; for Cmax: rat plasma; for Cmax / Tmax: oral gavage, 2 mg/mL at 2.5 mL/kg; for clearance / Vd / Tmax / bioavailability / half-life: plasma, rat; for clearance / Vd / half-life: 1 mg/kg; for clearance / Vd: intravenous administration, 1 mg/mL at 1.0 mL/kg; for clearance: read-out: CI (clearance) (converted); for Vd: read-out: Vd (volume of distribution); for bioavailability: po 2 mg/mL at 2.5 mL/kg vs iv 1 mg/mL at 1.0 mL/kg, dose-normalized, read-out: F (%) oral bioavailability; for half-life: intravenous, read-out: T1/2 elimination half life (converted)
Outline: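 Male Sprague-Dawley rats, fasted, dosed iv (1 mg/mL formulation, 1.0 mL/kg, jugular or tail vein) or by oral gavage (2 mg/mL suspension, 2.5 mL/kg). Plasma sampled from 2 min to 480 min, some to 24 h, and quantified by LC-MS/MS (MRM). Parameters from noncompartmental analysis.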

[2] = Brain penetration after single oral dose in rats; assay type: in vivo; conditions: Sprague-Dawley, rat, single oral dose (compound 26 5 mg/kg, 62 15 mg/kg, 20, 63 and 66 50 mg/kg), at or near Tmax
Experimental: Nitrone compounds of this invention were formulated individually as suspensions and administered as a single dose to Sprague-Dawley rats via oral gavage (compound 26 at 5 mg/kg, compound 62 at 15 mg/kg, compounds 20, 63 and 66 at 50 mg/kg). Plasma samples were obtained at or near Tmax projected at the given dose for each compound and the animals were euthanized using carbon dioxide. Immediately following euthanization, cerebrospinal fluid (CSF) was obtained by cisternal puncture of the atlanto-occipital membrane and drawn from the magnum cisternum. The brain was first perfused intracardially with ˜150 mL of ice-cold 0.1 M Phosphate Buffered Saline (PBS) at pH7.4. Following the removal of the dura, the brain was weighed. The brain was then dissected into smaller pieces and rinsed twice with ˜10 mL PBS. The brain, CSF, and plasma samples were frozen on dry ice and stored at −80° C. before analysis. CSF and plasma samples were subjected to a protein precipitation method prior to LC/MS/MS analysis. Blank rat plasma and CSF were used accordingly for diluting the samples when needed. Bioanalytical standard curves were prepared by spiking a stock solution of the nitrone compound to blank rat plasma or CSF to achieve a quantitation curve range and analyzed the standards in the same manner as the samples. Brain samples underwent homogenization in 2 mL water and liquid-liquid extraction with ethyl acetate three times. The combined organic phase for each sample was evaporated under a stream of nitrogen at 40° C. and the residues were reconstituted with an appropriate amount of mobile phase B (referring to LC/MS/MS method section). A bioanalytical standard curve for brain analysis was prepared by spiking 100 μL of stock solution directly into sliced blank rat brain purchased from Pelfreez. The spiked brains then underwent the same processing procedures for the dosed samples.
The reconstituted samples were vortexed and incubated to fully dissolve the analytes. The samples were centrifuged, and then further diluted with Mobile phase B if necessary before LC/MS/MS analysis. Nitrone compound levels in the brain were calculated based on the measured concentration, the volume of reconstitution and brain weight to yield a unit of ng (of compound) per g of brain. To calculate the brain/plasma ratio (w/v), it was assumed that 1 g of brain tissue takes approximately 1 mL of volume.

[3] = CSF and plasma, read-out: CSF/Plasma (%)
[4] = brain and plasma, 1 g brain assumed 1 mL, read-out: Brain/Plasma (%)

Cmax [1] [ng/mL]	clearance [1] [mL/min/kg]	Vd [1] [L/kg]	Tmax [1] [min]	bioavailability [1] [%]	half-life [1] [min]	Kp [2, 3]	Kp [2, 4]	SMILES
1120	28	3.78	25.2	65.3	94.8			CC(C)(C)/[N+]([O-])=C/c1ccc(S(=O)(=O)N2CCOCC2)cc1 [Compound 23, N-(tert-Butyl)-C-[4-(morpholine-4-sulfonyl)phenyl]nitrone]
4730	3	0.63	60	70.3	143	0.936	0.224	CC(C)(C)/[N+]([O-])=C/c1ccccc1S(C)(=O)=O [Compound 66, N-tert-Butyl-C-(2-methanesulfonylphenyl)nitrone]
2490	13.8	0.67	39.6	91.3	33			CCS(=O)(=O)c1ccc(/C=[N+](\[O-])C(C)(C)C)c(S(=O)(=O)CC)c1 [Compound 64, N-tert-Butyl-C-(2,4-bis-ethanesulfonylphenyl)nitrone]
4630	1	0.53	24.6	63.4	349	0.786	0.625	CC(C)(C)/[N+]([O-])=C/c1ccc(S(C)(=O)=O)cc1 [Compound 62, N-tert-Butyl-C-[4-(methanesulfonyl)phenyl]nitrone]
796	12.8	4.08	22.2	55.4	220	0.144	0.229	CC(C)(C)/[N+]([O-])=C/c1ccc(S(N)(=O)=O)cc1 [Compound 20, N-(tert-Butyl)-C-[4-(sulfamoyl)phenyl]nitrone]
27300	0.167	0.09	25.2	43.4	262	0.0012	0.0056	CC(C)(C)/[N+]([O-])=C/c1ccc(S(=O)(=O)Nc2cccnc2)cc1 [Compound 26, N-(tert-Butyl)-C-[4-(pyridin-3-ylsulfamoyl)phenyl]nitrone]
4130	3.17	0.45	45	95.9	99.6	0.336	0.189	CC(C)(C)/[N+]([O-])=C/c1ccc(S(C)(=O)=O)cc1S(C)(=O)=O [Compound 63, N-tert-Butyl-C-(2,4-bis-methanesulfonylphenyl)nitrone]
